The first assay addresses T1, olfactory receptor OR5K1 (Homo sapiens, UniProt Q8NHB7).
T1 construct: expressed in transfected cells; host or cells: HEK293
T1 sequence (Q8NHB7 1-308): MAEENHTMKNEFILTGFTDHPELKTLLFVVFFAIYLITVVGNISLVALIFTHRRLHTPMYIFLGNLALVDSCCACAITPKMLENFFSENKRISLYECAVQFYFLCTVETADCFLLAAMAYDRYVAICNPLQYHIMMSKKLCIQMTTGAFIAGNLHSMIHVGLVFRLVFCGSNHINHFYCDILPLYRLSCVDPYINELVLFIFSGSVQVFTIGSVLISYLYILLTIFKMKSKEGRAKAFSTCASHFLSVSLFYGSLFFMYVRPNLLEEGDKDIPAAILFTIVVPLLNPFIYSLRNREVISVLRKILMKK
Description: Luciferase reporter gene assay: response of olfactory receptor OR5K1 expressed in HEK293 cells to pyrazine compounds. Type of assay: cell-based. The settings on record: 0, 3, 10, 30, 100, 300 and 1000 μM; HEK293 cells with RTP1S variant; FIG. 2. The text has this:
Human olfactory receptors were cloned based on sequence information registered in GenBank by PCR using human genomic DNA female (G1521: Promega Corporation) as a template. Each gene amplified by PCR was inserted into a pENTR vector (Invitrogen Inc.) in accordance with the manual and was recombined into the NotI and AscI site located downstream of a Flag-Rho tag sequence in a pME18S vector using the NotI and AscI site present in the pENTR vector.
An RTP1S variant gene (SEQ ID NO: 3) encoding an RTP1S variant (SEQ ID NO: 4) was inserted into the EcoRI and XhoI site of a pME18S vector.
HEK293 cells expressing 373 types of human olfactory receptors were produced. A reaction solution having a composition shown in Table 1 was prepared and left to stand in a clean bench for 15 min and then was dispensed in each well of a 96-well plate (Becton, Dickinson and Company). Subsequently, HEK293 cells (100 μL, 3×10^5 cells/cm^2) were seeded in each well and cultured in an incubator at 37° C. and 5% CO2 for 24 hr.
An olfactory receptor expressed in HEK293 cells couples with endogenous Gas in the cells to activate adenylate cyclase and thereby increases the amount of intracellular cAMP. In this study, the response of a pyrazine derivative was measured by luciferase reporter gene assay which monitors an increase in amount of intracellular cAMP as the luminescence value derived from a firefly luciferase gene (fluc2P-CRE-hygro). A Renilla luciferase gene was fused downstream of a CMV promoter (hRluc-CMV) and was also introduced to HEK293 cells as an internal standard to correct errors in transgenic efficiency and number of cells.
The culture medium was removed from the culture produced in the above 3), and 75 μL of a solution prepared with a CD293 medium (Invitrogen Inc.) so as to contain a pyrazine derivative (1 mM, 2,6-dimethylpyrazine) was added thereto. The cells were cultured in a CO2 incubator for 2.5 hr to sufficiently express the luciferase gene in the cells. The luciferase activity was measured with a Dual-Glo™ luciferase assay system (Promega Corporation) in accordance with the operating manual of the system. The fold increases were calculated by dividing the luminescence value derived from firefly luciferase induced by stimulation with a pyrazine derivative at each concentration by the luminescence value in cells not stimulated with the pyrazine derivative and were used as an index of response strength.
Olfactory receptor OR5K1 (SEQ ID NO: 2) was expressed in HEK293 cells together with an RTP1S variant (SEQ ID NO: 4) by the same procedure as in Example 1, and the dependency of the response on the concentration (0, 3, 10, 30, 100, 300, and 1000 μM) of various pyrazine compounds was investigated. The pyrazine compounds used in this Example were pyrazine and pyrazine derivatives selected from the group consisting of 2-methylpyrazine, 2,3-dimethylpyrazine, 2,5-dimethylpyrazine, 2,3,5-trimethylpyrazine, 2,3,5,6-tetramethylpyrazine, and 2-ethylpyrazine.
In general terms: Reporter assays use an easily measured gene product as a stand-in for the process of interest.
Take `Cc1nc(C)c(C)nc1C` [2,3,5,6-tetramethylpyrazine]: the “dependency of the response of OR5K1 on the concentration of pyrazine compounds” value (“dependency of the response of OR5K1” below) was “dose-dependently responded”.
With `Cc1cnc(C)c(C)n1` [2,3,5-trimethylpyrazine], the “dependency of the response of OR5K1” value is recorded as “dose-dependently responded”.
Turning to `Cc1nccnc1C` [2,3-dimethylpyrazine], the “dependency of the response of OR5K1” value is given as “dose-dependently responded”.
Still for that read-out and setting: the same measure for `Cc1cnc(C)cn1` [2,5-dimethylpyrazine]: “dose-dependently responded”; for `Cc1cncc(C)n1` [2,6-dimethylpyrazine]: “dose-dependently responded”; for `CCc1cnccn1` [2-ethylpyrazine]: “dose-dependently responded”.
Take `Cc1cnccn1` [2-methylpyrazine]: the “dependency of the response of OR5K1” value is “dose-dependently responded”.
Same read-out and setting: the same measure for `c1cnccn1` [pyrazine]: “did not respond”.

The assay is the same for the next values; noted with them: 1 mM; 373 types of human olfactory receptors screened in HEK293 cells; FIG. 1.
For `Cc1cncc(C)n1` [2,6-dimethylpyrazine], the “response of olfactory receptor to 2,6-dimethylpyrazine (fold increase of luciferase luminescence)” value was “responded”.

The values are drawn from US10159655B2, “Agent for inhibiting odor of pyrazine derivatives” (Kao Corporation, priority 2012, dated 2018).
